Data taken from BindingDB's records for doi:10.1016/S0960-894X(01)80539-4 (1994).
pIC50: −log10 of the molar value.

Molecular target: Sigma-1 receptor (Cavia porcellus)
Experiment: In vitro binding affinity towards sigma receptor by the displacement of [3H]PPP from guinea pig brain

| SMILES | pIC50 |
| --- | --- |
| O=C(NC(CCCN1CCN(c2ncc(F)cn2)CC1)C1CCCCC1)c1ccc(F)cc1 (configuration not stated) [N-{1-Cyclohexyl-4-[4-(5-fluoro-pyrimidin-2-yl)-piperazin-1-yl]-butyl}-4-fluoro-benzamide] | < 8.70 |
| NC(CCCN1CCN(c2ncc(F)cn2)CC1)C1CCCCC1 (configuration not stated) [1-Cyclohexyl-4-[4-(5-fluoro-pyrimidin-2-yl)-piperazin-1-yl]-butylamine] | 7.28 |
| O=C(NC(CCCN1CCN(c2ncc(F)cn2)CC1)c1ccc(F)cc1)c1ccc(F)cc1 (configuration not stated) [4-Fluoro-N-{1-(4-fluoro-phenyl)-4-[4-(5-fluoro-pyrimidin-2-yl)-piperazin-1-yl]-butyl}-benzamide] | < 7.00 |
| OC(CCCN1CCN(c2ncc(F)cn2)CC1)c1ccc(F)c2ccccc12 (configuration not stated) [1-(4-Fluoro-naphthalen-1-yl)-4-[4-(5-fluoro-pyrimidin-2-yl)-piperazin-1-yl]-butan-1-ol] | 7.06 |
| OC(CCCN1CCN(c2ncc(F)cn2)CC1)C1CCCCC1 (configuration not stated) [1-Cyclohexyl-4-[4-(5-fluoro-pyrimidin-2-yl)-piperazin-1-yl]-butan-1-ol] | 7.92 |
| NC(CCCN1CCN(c2ncc(F)cn2)CC1)c1ccc(F)c2ccccc12 (configuration not stated) [1-(4-Fluoro-naphthalen-1-yl)-4-[4-(5-fluoro-pyrimidin-2-yl)-piperazin-1-yl]-butylamine] | 6.67 |
| O=C(OC(CCCN1CCN(c2ncc(F)cn2)CC1)c1ccc(F)cc1)c1ccccc1 (configuration not stated) [Benzoic acid 1-(4-fluoro-phenyl)-4-[4-(5-fluoro-pyrimidin-2-yl)-piperazin-1-yl]-butyl ester] | 5.46 |

Results, then the molecule that gave them:

| pIC50 | SMILES |
| --- | --- |
| 7.05 | Fc1ccc(OCCCN2CCN(c3ncc(F)cn3)CC2)cc1 [5-Fluoro-2-{4-[3-(4-fluoro-phenoxy)-propyl]-piperazin-1-yl}-pyrimidine] |
| 7.64 | Fc1ccc(CCCCN2CCN(c3ncc(F)cn3)CC2)cc1 [5-Fluoro-2-{4-[4-(4-fluoro-phenyl)-butyl]-piperazin-1-yl}-pyrimidine] |
| < 7.35 | O=S(=O)(CCCN1CCN(c2ncc(F)cn2)CC1)c1ccc(F)cc1 [5-Fluoro-2-{4-[3-(4-fluoro-benzenesulfonyl)-propyl]-piperazin-1-yl}-pyrimidine] |
| < 7.31 | CC(=O)NC(CCCN1CCN(c2ncc(F)cn2)CC1)c1ccc(F)cc1 (configuration not stated) [N-{1-(4-Fluoro-phenyl)-4-[4-(5-fluoro-pyrimidin-2-yl)-piperazin-1-yl]-butyl}-acetamide] |
| 7.29 | Fc1ccc(SCCCN2CCN(c3ncc(F)cn3)CC2)cc1 [5-Fluoro-2-{4-[3-(4-fluoro-phenylsulfanyl)-propyl]-piperazin-1-yl}-pyrimidine] |
